In the kinase profiling compilation of Christmann-Franck et al. (2016):
Values joined by “and” are separate entries in the source; they are usually repeats but may differ in a detail not shown here. Equal entries are not always repeated.

Legend:
Test in all cases: radiometric filter-binding kinase assay, Kinase HotSpot
Details in all cases: compound 0.5 µM; ATP 10 µM
ADRBK2 (human) = ADRBK2 (human) (UniProt P35626)
AKT3 (human) = AKT3 (human) (UniProt Q9Y243)
CAMK1 (human) = CAMK1 (human) (UniProt Q14012)
CAMK2A (human) = CAMK2A (human) (UniProt Q9UQM7)
CDK6 CCND1 (human) = CDK6 CCND1 (human) (UniProt Q00534+P24385)
CLK2 (human) = CLK2 (human) (UniProt P49760)
CSNK1E (human) = CSNK1E (human) (UniProt P49674)
DCLK2 (human) = DCLK2 (human) (UniProt Q8N568)
DSTYK (human) = DSTYK (human) (UniProt Q6XUX3)
DSTYK (human), sequence (Q6XUX3 whole entry, looked up): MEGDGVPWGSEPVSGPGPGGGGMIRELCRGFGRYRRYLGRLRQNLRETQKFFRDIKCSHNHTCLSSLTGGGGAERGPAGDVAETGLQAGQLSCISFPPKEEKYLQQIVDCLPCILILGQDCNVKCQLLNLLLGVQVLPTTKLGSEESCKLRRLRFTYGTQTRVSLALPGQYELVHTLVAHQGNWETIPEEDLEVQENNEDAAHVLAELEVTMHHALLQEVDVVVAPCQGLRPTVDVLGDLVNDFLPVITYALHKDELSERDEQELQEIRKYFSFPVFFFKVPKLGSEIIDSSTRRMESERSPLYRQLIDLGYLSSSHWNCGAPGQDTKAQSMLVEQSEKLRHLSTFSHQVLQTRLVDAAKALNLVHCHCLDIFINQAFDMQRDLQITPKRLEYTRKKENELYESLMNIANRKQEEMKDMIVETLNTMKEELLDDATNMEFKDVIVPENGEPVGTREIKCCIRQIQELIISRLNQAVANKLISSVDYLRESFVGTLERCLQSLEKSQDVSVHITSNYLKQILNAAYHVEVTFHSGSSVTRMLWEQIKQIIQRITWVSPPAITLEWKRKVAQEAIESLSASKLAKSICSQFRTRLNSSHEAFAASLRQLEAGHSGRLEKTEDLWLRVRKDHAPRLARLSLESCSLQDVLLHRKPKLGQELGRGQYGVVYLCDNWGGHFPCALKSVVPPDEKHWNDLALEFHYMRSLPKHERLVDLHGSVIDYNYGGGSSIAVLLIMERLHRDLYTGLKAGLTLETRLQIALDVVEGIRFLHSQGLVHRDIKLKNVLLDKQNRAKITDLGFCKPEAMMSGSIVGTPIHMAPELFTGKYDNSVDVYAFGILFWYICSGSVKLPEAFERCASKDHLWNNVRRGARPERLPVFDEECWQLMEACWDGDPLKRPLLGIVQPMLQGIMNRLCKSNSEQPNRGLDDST

EPHA1 (human) = EPHA1 (human) (UniProt P21709)
EPHA1 (human), sequence (P21709 whole entry, looked up): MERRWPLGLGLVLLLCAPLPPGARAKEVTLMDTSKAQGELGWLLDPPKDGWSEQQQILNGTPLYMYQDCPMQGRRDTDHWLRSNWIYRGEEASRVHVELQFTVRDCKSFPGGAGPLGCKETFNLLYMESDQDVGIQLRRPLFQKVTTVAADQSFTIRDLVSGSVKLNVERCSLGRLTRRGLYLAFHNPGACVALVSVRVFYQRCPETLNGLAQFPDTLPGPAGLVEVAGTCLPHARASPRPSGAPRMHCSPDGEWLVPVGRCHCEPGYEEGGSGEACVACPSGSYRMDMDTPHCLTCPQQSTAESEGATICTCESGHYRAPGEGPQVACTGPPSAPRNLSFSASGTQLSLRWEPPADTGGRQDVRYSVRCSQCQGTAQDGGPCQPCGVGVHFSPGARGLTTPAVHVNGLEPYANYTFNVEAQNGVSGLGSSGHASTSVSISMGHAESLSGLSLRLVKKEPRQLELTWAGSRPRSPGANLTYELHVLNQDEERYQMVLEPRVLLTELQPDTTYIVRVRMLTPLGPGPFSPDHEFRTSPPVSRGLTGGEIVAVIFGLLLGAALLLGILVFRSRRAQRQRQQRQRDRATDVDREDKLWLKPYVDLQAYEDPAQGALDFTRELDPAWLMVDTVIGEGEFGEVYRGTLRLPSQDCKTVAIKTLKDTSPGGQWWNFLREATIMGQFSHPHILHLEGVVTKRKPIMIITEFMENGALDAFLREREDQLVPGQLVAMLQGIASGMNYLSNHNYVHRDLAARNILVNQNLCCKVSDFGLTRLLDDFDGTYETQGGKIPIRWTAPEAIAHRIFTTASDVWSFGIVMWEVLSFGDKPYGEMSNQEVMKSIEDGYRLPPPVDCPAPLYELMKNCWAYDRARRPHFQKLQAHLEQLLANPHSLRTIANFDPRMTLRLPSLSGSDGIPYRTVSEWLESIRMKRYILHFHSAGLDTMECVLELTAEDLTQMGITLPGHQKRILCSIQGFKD

GSG2 (human) = GSG2 (human) (UniProt Q8TF76)
INSR (human) = INSR (human) (UniProt P06213)
IRAK4 (human) = IRAK4 (human) (UniProt Q9NWZ3)
LTK (human) = LTK (human) (UniProt P29376)
LYN (human) = LYN (human) (UniProt P07948)
LYN (human), sequence (P07948 whole entry, looked up): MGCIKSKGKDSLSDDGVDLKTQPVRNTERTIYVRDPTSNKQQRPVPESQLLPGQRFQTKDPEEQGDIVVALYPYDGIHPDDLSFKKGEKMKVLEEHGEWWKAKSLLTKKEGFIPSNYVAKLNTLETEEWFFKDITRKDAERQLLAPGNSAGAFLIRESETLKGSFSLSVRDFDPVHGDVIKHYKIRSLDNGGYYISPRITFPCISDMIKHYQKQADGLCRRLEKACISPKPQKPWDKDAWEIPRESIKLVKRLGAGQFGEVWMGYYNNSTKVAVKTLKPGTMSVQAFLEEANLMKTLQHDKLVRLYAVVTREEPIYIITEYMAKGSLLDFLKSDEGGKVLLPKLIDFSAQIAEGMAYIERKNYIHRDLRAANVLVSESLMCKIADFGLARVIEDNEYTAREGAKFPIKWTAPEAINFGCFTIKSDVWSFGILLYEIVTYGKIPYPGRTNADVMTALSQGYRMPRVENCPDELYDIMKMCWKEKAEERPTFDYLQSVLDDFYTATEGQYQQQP

MAP3K3 (human) = MAP3K3 (human) (UniProt Q99759)
MAP3K7 TAB1 (human) = MAP3K7 TAB1 (human) (UniProt O43318+Q15750)
MAP4K2 (human) = MAP4K2 (human) (UniProt Q12851)
MAPK10 (human) = MAPK10 (human) (UniProt P53779)
MAPK9 (human) = MAPK9 (human) (UniProt P45984)
MAPKAPK2 (human) = MAPKAPK2 (human) (UniProt P49137)
MELK (human) = MELK (human) (UniProt Q14680)
MUSK (human) = MUSK (human) (UniProt O15146)
MYLK (human) = MYLK (human) (UniProt Q15746)
MYLK (human), sequence (Q15746 whole entry, looked up): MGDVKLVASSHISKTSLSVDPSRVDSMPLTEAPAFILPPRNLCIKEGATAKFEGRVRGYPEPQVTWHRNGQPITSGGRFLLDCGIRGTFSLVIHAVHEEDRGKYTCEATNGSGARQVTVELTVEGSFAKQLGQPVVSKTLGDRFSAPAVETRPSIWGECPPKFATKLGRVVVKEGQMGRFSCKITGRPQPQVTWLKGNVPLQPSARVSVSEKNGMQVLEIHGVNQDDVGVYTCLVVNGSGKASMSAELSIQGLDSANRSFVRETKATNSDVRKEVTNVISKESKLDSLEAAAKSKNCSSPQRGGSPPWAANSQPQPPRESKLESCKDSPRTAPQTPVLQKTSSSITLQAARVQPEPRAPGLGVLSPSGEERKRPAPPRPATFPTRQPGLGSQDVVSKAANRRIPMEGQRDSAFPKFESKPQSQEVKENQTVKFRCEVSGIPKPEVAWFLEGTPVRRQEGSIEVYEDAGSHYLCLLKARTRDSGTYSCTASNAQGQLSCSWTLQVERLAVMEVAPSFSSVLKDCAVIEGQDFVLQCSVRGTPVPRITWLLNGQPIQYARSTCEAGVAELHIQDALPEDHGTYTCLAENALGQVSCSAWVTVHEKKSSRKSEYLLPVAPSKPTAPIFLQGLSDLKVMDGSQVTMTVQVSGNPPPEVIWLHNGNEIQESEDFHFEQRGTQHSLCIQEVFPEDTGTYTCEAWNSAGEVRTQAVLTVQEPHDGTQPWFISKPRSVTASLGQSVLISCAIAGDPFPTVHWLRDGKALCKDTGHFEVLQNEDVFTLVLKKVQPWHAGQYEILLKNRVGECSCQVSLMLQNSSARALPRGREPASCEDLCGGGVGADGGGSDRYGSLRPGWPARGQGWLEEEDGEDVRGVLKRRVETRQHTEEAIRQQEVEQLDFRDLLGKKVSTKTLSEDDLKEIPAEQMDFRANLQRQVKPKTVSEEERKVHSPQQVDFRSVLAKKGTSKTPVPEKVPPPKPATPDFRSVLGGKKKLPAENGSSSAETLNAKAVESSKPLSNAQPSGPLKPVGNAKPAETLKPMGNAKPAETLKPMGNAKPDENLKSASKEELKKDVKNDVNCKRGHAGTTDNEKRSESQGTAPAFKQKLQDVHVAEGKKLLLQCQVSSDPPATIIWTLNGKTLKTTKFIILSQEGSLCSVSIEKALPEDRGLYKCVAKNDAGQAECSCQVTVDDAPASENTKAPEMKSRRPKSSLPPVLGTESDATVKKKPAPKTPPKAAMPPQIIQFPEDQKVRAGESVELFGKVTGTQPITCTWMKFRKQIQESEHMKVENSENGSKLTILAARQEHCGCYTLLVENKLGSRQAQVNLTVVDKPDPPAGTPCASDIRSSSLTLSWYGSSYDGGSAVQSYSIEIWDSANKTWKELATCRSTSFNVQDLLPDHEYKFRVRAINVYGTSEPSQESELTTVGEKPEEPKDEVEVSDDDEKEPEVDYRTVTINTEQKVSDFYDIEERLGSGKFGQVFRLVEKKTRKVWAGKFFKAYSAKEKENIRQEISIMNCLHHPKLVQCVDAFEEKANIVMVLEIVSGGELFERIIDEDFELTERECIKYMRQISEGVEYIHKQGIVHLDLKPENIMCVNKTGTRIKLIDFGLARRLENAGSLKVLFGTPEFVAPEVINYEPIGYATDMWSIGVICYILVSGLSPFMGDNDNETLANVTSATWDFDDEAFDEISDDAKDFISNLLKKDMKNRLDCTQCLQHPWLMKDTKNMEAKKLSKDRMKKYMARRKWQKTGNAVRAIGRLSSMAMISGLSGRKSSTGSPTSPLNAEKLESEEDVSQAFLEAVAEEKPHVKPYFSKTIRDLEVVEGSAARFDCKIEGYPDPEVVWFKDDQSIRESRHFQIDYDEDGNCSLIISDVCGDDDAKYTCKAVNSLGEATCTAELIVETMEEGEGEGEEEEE

NEK3 (human) = NEK3 (human) (UniProt P51956)
NEK4 (human) = NEK4 (human) (UniProt P51957)
PAK1 (human) = PAK1 (human) (UniProt Q13153)
PAK3 (human) = PAK3 (human) (UniProt O75914)
PAK4 (human) = PAK4 (human) (UniProt O96013)
PBK (human) = PBK (human) (UniProt Q96KB5)
PBK (human), sequence (Q96KB5 whole entry, looked up): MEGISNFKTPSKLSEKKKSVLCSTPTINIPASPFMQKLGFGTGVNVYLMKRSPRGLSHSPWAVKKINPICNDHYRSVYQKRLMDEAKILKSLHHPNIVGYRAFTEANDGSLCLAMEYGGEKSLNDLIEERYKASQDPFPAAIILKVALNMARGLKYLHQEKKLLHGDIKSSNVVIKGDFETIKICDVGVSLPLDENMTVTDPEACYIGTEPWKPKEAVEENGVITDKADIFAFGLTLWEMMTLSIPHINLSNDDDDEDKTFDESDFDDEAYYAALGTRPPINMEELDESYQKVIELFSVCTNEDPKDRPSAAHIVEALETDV

PRKD3 (human) = PRKD3 (human) (UniProt O94806)
PRKX (human) = PRKX (human) (UniProt P51817)
RET (human) = RET (human) (UniProt P07949)
[1] = tested on: SGK1 (human), O00141 [S422D]
SRC (human) = SRC (human) (UniProt P12931)
STK24 (human) = STK24 (human) (UniProt Q9Y6E0)
STK24 (human), sequence (Q9Y6E0 whole entry, looked up): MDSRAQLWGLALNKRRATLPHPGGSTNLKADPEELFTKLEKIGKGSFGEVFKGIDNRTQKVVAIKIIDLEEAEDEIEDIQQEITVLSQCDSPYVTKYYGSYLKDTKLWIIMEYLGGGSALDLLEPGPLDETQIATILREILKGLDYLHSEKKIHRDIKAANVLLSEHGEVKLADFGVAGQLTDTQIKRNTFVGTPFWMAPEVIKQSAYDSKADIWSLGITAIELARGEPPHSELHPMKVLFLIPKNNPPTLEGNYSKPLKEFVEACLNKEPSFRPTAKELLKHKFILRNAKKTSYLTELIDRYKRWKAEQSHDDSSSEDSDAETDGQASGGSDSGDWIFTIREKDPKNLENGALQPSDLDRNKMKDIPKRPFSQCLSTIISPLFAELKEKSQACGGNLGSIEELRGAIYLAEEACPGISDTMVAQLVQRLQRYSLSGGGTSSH

STK33 (human) = STK33 (human) (UniProt Q9BYT3)
SYK (human) = SYK (human) (UniProt P43405)
TAOK2 (human) = TAOK2 (human) (UniProt Q9UL54)
TGFBR1 (human) = TGFBR1 (human) (UniProt P36897)
TGFBR2 (human) = TGFBR2 (human) (UniProt P37173)
TNK2 (human) = TNK2 (human) (UniProt Q07912)

## O=C(c1ccccc1)c1ccc(N2CCOCC2)cc1O
ADRBK2 (human)
  residual activity: 103%
AKT3 (human)
  residual activity: 105%
CAMK1 (human)
  residual activity: 97.5%
CAMK2A (human)
  residual activity: 105%
CDK6 CCND1 (human)
  residual activity: 97.8%
CLK2 (human)
  residual activity: 106%
CSNK1E (human)
  residual activity: 97.7%
DCLK2 (human)
  residual activity: 103%
DSTYK (human)
  residual activity: 86.2%
EPHA1 (human)
  residual activity: 89.1%
GSG2 (human)
  residual activity: 98.5%
INSR (human)
  residual activity: 92.9%
IRAK4 (human)
  residual activity: 108%
LTK (human)
  residual activity: 107%
LYN (human)
  residual activity: 100% and 105%
MAP3K3 (human)
  residual activity: 97.8%
MAP3K7 TAB1 (human)
  residual activity: 101%
MAP4K2 (human)
  residual activity: 116%
MAPK10 (human)
  residual activity: 75.3%
MAPK9 (human)
  residual activity: 98.9%
MAPKAPK2 (human)
  residual activity: 102%
MELK (human)
  residual activity: 103%
MUSK (human)
  residual activity: 101%
MYLK (human)
  residual activity: 91.8%
NEK3 (human)
  residual activity: 95.6%
NEK4 (human)
  residual activity: 97.7%
PAK1 (human)
  residual activity: 91.8%
PAK3 (human)
  residual activity: 99.4%
PAK4 (human)
  residual activity: 104%
PBK (human)
  residual activity: 114%
PRKD3 (human)
  residual activity: 96.1%
PRKX (human)
  residual activity: 109%
RET (human)
  residual activity: 97.8%
[1]
  residual activity: 101%
SRC (human)
  residual activity: 97.8%
STK24 (human)
  residual activity: 89%
STK33 (human)
  residual activity: 108%
SYK (human)
  residual activity: 96.6%
TAOK2 (human)
  residual activity: 107%
TGFBR1 (human)
  residual activity: 94.3%
TGFBR2 (human)
  residual activity: 109%
TNK2 (human)
  residual activity: 104%

## CCc1nc(-c2ccc(OC)cc2)[nH]c1-c1ccncc1
ADRBK2 (human)
  residual activity: 98.4%
AKT3 (human)
  residual activity: 101%
CAMK1 (human)
  residual activity: 108%
CAMK2A (human)
  residual activity: 105%
CDK6 CCND1 (human)
  residual activity: 101%
CLK2 (human)
  residual activity: 106%
CSNK1E (human)
  residual activity: 95%
DCLK2 (human)
  residual activity: 103%
DSTYK (human)
  residual activity: 99.6%
EPHA1 (human)
  residual activity: 116%
GSG2 (human)
  residual activity: 55.9%
INSR (human)
  residual activity: 85%
IRAK4 (human)
  residual activity: 111%
LTK (human)
  residual activity: 106%
LYN (human)
  residual activity: 101% and 103%
MAP3K3 (human)
  residual activity: 99%
MAP3K7 TAB1 (human)
  residual activity: 96.6%
MAP4K2 (human)
  residual activity: 106%
MAPK10 (human)
  residual activity: 100%
MAPK9 (human)
  residual activity: 101%
MAPKAPK2 (human)
  residual activity: 100%
MELK (human)
  residual activity: 110%
MUSK (human)
  residual activity: 85.9%
MYLK (human)
  residual activity: 104%
NEK3 (human)
  residual activity: 92.4%
NEK4 (human)
  residual activity: 95.2%
PAK1 (human)
  residual activity: 99.3%
PAK3 (human)
  residual activity: 103%
PAK4 (human)
  residual activity: 118%
PBK (human)
  residual activity: 104%
PRKD3 (human)
  residual activity: 97.1%
PRKX (human)
  residual activity: 93.3%
RET (human)
  residual activity: 99.2%
[1]
  residual activity: 104%
SRC (human)
  residual activity: 95.3%
STK24 (human)
  residual activity: 93.2%
STK33 (human)
  residual activity: 101%
SYK (human)
  residual activity: 98.7%
TAOK2 (human)
  residual activity: 98.2%
TGFBR1 (human)
  residual activity: 98.2%
TGFBR2 (human)
  residual activity: 140%
TNK2 (human)
  residual activity: 100%
